Experimental data published in patent US11793849B2, “Method of Chinese herbal medicine extract used for treating multiple diseases caused by drug resistant bacteria infection” (priority 2016, dated 2023).
In brackets after ≈: the same amount, converted by molar mass. Where two headings read alike, the source gives them in different places.

How the values were obtained:
MDRAB = assay: MIC determination, microdilution broth method; type: cell-based, Acinetobacter baumannii; conditions: for MIC: read-out: MIC
Protocol: Determination methods of a Minimal Inhibitory Concentration (MIC) and a Minimum Bactericidal Concentration (MBC) of a test product: the MIC and the MBC of the Pithecellobium clypearia Benth water or ethanol extract to the MDRAB are determined by a microdilution broth method. And it is operated by referring to the microdilution broth method recommended by National Committee for Clinical Laboratory Standards (NCCLS).

ATCC27853 = assay: MIC determination, control strain; type: cell-based
Protocol: Determination methods of a Minimal Inhibitory Concentration (MIC) and a Minimum Bactericidal Concentration (MBC) of a test product: the MIC and the MBC of the Pithecellobium clypearia Benth water or ethanol extract to the MDRAB are determined by a microdilution broth method.

[1] = single use, 20 MDRABs, EA=10% ethanol extract
[2] = single use, 20 MDRABs, EA=water extract
[3] = single use, 20 MDRABs, section of the 95% ethanol extract

C[C@@H](O)[C@H]1C(=O)N2C(C(=O)O)=C(SCCN=CN)C[C@H]12 [IMP, imipenem]
MIC (MDRAB; Acinetobacter baumannii, strain A1, EA=60% ethanol extract): 1 µg/mL (≈ 3.34 µM)
MIC (MDRAB; Acinetobacter baumannii, strain A1, EA=95% ethanol extract): 1 µg/mL (≈ 3.34 µM)
MIC (MDRAB; Acinetobacter baumannii, strain A1, single use, EA=10% ethanol extract): 1 µg/mL (≈ 3.34 µM)
MIC (MDRAB; Acinetobacter baumannii, strain A1, single use, EA=water extract): 1 µg/mL (≈ 3.34 µM)
MIC (MDRAB; Acinetobacter baumannii, strain A2, EA=60% ethanol extract): 32 µg/mL (≈ 107 µM)
MIC (MDRAB; Acinetobacter baumannii, strain A2, EA=95% ethanol extract): 32 µg/mL (≈ 107 µM)
MIC (MDRAB; Acinetobacter baumannii, strain A2, single use, EA=10% ethanol extract): 32 µg/mL (≈ 107 µM)
MIC (MDRAB; Acinetobacter baumannii, strain A2, single use, EA=water extract): 32 µg/mL (≈ 107 µM)
MIC (MDRAB; Acinetobacter baumannii, strain A3, EA=60% ethanol extract): 32 µg/mL (≈ 107 µM)
MIC (MDRAB; Acinetobacter baumannii, strain A3, EA=95% ethanol extract): 32 µg/mL (≈ 107 µM)
MIC (MDRAB; Acinetobacter baumannii, strain A3, single use, EA=10% ethanol extract): 32 µg/mL (≈ 107 µM)
MIC (MDRAB; Acinetobacter baumannii, strain A3, single use, EA=water extract): 32 µg/mL (≈ 107 µM)
MIC (MDRAB; Acinetobacter baumannii, strain A4, EA=60% ethanol extract): 8 µg/mL (≈ 26.7 µM)
MIC (MDRAB; Acinetobacter baumannii, strain A4, EA=95% ethanol extract): 8 µg/mL (≈ 26.7 µM)
MIC (MDRAB; Acinetobacter baumannii, strain A4, single use, EA=10% ethanol extract): 8 µg/mL (≈ 26.7 µM)
MIC (MDRAB; Acinetobacter baumannii, strain A4, single use, EA=water extract): 8 µg/mL (≈ 26.7 µM)
MIC (MDRAB; Acinetobacter baumannii, strain A5, EA=60% ethanol extract): 32 µg/mL (≈ 107 µM)
MIC (MDRAB; Acinetobacter baumannii, strain A5, EA=95% ethanol extract): 32 µg/mL (≈ 107 µM)
MIC (MDRAB; Acinetobacter baumannii, strain A5, single use, EA=10% ethanol extract): 32 µg/mL (≈ 107 µM)
MIC (MDRAB; Acinetobacter baumannii, strain A5, single use, EA=water extract): 32 µg/mL (≈ 107 µM)
MIC (MDRAB; Acinetobacter baumannii, strain A6, EA=60% ethanol extract): 32 µg/mL (≈ 107 µM)
MIC (MDRAB; Acinetobacter baumannii, strain A6, EA=95% ethanol extract): 32 µg/mL (≈ 107 µM)
MIC (MDRAB; Acinetobacter baumannii, strain A6, single use, EA=10% ethanol extract): 32 µg/mL (≈ 107 µM)
MIC (MDRAB; Acinetobacter baumannii, strain A6, single use, EA=water extract): 32 µg/mL (≈ 107 µM)
MIC (MDRAB; Acinetobacter baumannii, strain A7, EA=60% ethanol extract): 32 µg/mL (≈ 107 µM)
MIC (MDRAB; Acinetobacter baumannii, strain A7, EA=95% ethanol extract): 32 µg/mL (≈ 107 µM)
MIC (MDRAB; Acinetobacter baumannii, strain A7, single use, EA=10% ethanol extract): 32 µg/mL (≈ 107 µM)
MIC (MDRAB; Acinetobacter baumannii, strain A7, single use, EA=water extract): 32 µg/mL (≈ 107 µM)
MIC (MDRAB; Acinetobacter baumannii, strain A8, EA=60% ethanol extract): 32 µg/mL (≈ 107 µM)
MIC (MDRAB; Acinetobacter baumannii, strain A8, EA=95% ethanol extract): 32 µg/mL (≈ 107 µM)
MIC (MDRAB; Acinetobacter baumannii, strain A8, single use, EA=10% ethanol extract): 32 µg/mL (≈ 107 µM)
MIC (MDRAB; Acinetobacter baumannii, strain A8, single use, EA=water extract): 32 µg/mL (≈ 107 µM)
MIC (MDRAB; Acinetobacter baumannii, strain A9, EA=60% ethanol extract): 32 µg/mL (≈ 107 µM)
MIC (MDRAB; Acinetobacter baumannii, strain A9, EA=95% ethanol extract): 32 µg/mL (≈ 107 µM)
MIC (MDRAB; Acinetobacter baumannii, strain A9, single use, EA=10% ethanol extract): 32 µg/mL (≈ 107 µM)
MIC (MDRAB; Acinetobacter baumannii, strain A9, single use, EA=water extract): 32 µg/mL (≈ 107 µM)
MIC (MDRAB; Acinetobacter baumannii, strain A10, EA=60% ethanol extract): 16 µg/mL (≈ 53.4 µM)
MIC (MDRAB; Acinetobacter baumannii, strain A10, EA=95% ethanol extract): 16 µg/mL (≈ 53.4 µM)
MIC (MDRAB; Acinetobacter baumannii, strain A10, single use, EA=10% ethanol extract): 16 µg/mL (≈ 53.4 µM)
MIC (MDRAB; Acinetobacter baumannii, strain A10, single use, EA=water extract): 16 µg/mL (≈ 53.4 µM)
MIC (MDRAB; Acinetobacter baumannii, strain A11, EA=60% ethanol extract): 32 µg/mL (≈ 107 µM)
MIC (MDRAB; Acinetobacter baumannii, strain A11, EA=95% ethanol extract): 32 µg/mL (≈ 107 µM)
MIC (MDRAB; Acinetobacter baumannii, strain A11, single use, EA=10% ethanol extract): 32 µg/mL (≈ 107 µM)
MIC (MDRAB; Acinetobacter baumannii, strain A11, single use, EA=water extract): 32 µg/mL (≈ 107 µM)
MIC (MDRAB; Acinetobacter baumannii, strain A12, EA=60% ethanol extract): 32 µg/mL (≈ 107 µM)
MIC (MDRAB; Acinetobacter baumannii, strain A12, EA=95% ethanol extract): 32 µg/mL (≈ 107 µM)
MIC (MDRAB; Acinetobacter baumannii, strain A12, single use, EA=10% ethanol extract): 32 µg/mL (≈ 107 µM)
MIC (MDRAB; Acinetobacter baumannii, strain A12, single use, EA=water extract): 32 µg/mL (≈ 107 µM)
MIC (MDRAB; Acinetobacter baumannii, strain A13, EA=60% ethanol extract): 32 µg/mL (≈ 107 µM)
MIC (MDRAB; Acinetobacter baumannii, strain A13, EA=95% ethanol extract): 32 µg/mL (≈ 107 µM)
MIC (MDRAB; Acinetobacter baumannii, strain A13, single use, EA=10% ethanol extract): 32 µg/mL (≈ 107 µM)
MIC (MDRAB; Acinetobacter baumannii, strain A13, single use, EA=water extract): 32 µg/mL (≈ 107 µM)
MIC (MDRAB; Acinetobacter baumannii, strain A14, EA=60% ethanol extract): 32 µg/mL (≈ 107 µM)
MIC (MDRAB; Acinetobacter baumannii, strain A14, EA=95% ethanol extract): 32 µg/mL (≈ 107 µM)
MIC (MDRAB; Acinetobacter baumannii, strain A14, single use, EA=10% ethanol extract): 32 µg/mL (≈ 107 µM)
MIC (MDRAB; Acinetobacter baumannii, strain A14, single use, EA=water extract): 32 µg/mL (≈ 107 µM)
MIC (MDRAB; Acinetobacter baumannii, strain A15, EA=60% ethanol extract): 32 µg/mL (≈ 107 µM)
MIC (MDRAB; Acinetobacter baumannii, strain A15, EA=95% ethanol extract): 32 µg/mL (≈ 107 µM)
MIC (MDRAB; Acinetobacter baumannii, strain A15, single use, EA=10% ethanol extract): 32 µg/mL (≈ 107 µM)
MIC (MDRAB; Acinetobacter baumannii, strain A15, single use, EA=water extract): 32 µg/mL (≈ 107 µM)
MIC (MDRAB; Acinetobacter baumannii, strain A16, EA=60% ethanol extract): 32 µg/mL (≈ 107 µM)
MIC (MDRAB; Acinetobacter baumannii, strain A16, EA=95% ethanol extract): 32 µg/mL (≈ 107 µM)
MIC (MDRAB; Acinetobacter baumannii, strain A16, single use, EA=10% ethanol extract): 32 µg/mL (≈ 107 µM)
MIC (MDRAB; Acinetobacter baumannii, strain A16, single use, EA=water extract): 32 µg/mL (≈ 107 µM)
MIC (MDRAB; Acinetobacter baumannii, strain A17, EA=60% ethanol extract): 16 µg/mL (≈ 53.4 µM)
MIC (MDRAB; Acinetobacter baumannii, strain A17, EA=95% ethanol extract): 16 µg/mL (≈ 53.4 µM)
MIC (MDRAB; Acinetobacter baumannii, strain A17, single use, EA=10% ethanol extract): 16 µg/mL (≈ 53.4 µM)
MIC (MDRAB; Acinetobacter baumannii, strain A17, single use, EA=water extract): 16 µg/mL (≈ 53.4 µM)
MIC (MDRAB; Acinetobacter baumannii, strain A18, EA=60% ethanol extract): 32 µg/mL (≈ 107 µM)
MIC (MDRAB; Acinetobacter baumannii, strain A18, EA=95% ethanol extract): 32 µg/mL (≈ 107 µM)
MIC (MDRAB; Acinetobacter baumannii, strain A18, single use, EA=10% ethanol extract): 32 µg/mL (≈ 107 µM)
MIC (MDRAB; Acinetobacter baumannii, strain A18, single use, EA=water extract): 32 µg/mL (≈ 107 µM)
MIC (MDRAB; Acinetobacter baumannii, strain A19, EA=60% ethanol extract): 32 µg/mL (≈ 107 µM)
MIC (MDRAB; Acinetobacter baumannii, strain A19, EA=95% ethanol extract): 32 µg/mL (≈ 107 µM)
MIC (MDRAB; Acinetobacter baumannii, strain A19, single use, EA=10% ethanol extract): 32 µg/mL (≈ 107 µM)
MIC (MDRAB; Acinetobacter baumannii, strain A19, single use, EA=water extract): 32 µg/mL (≈ 107 µM)
MIC (MDRAB; Acinetobacter baumannii, strain A20, EA=60% ethanol extract): 32 µg/mL (≈ 107 µM)
MIC (MDRAB; Acinetobacter baumannii, strain A20, EA=95% ethanol extract): 32 µg/mL (≈ 107 µM)
MIC (MDRAB; Acinetobacter baumannii, strain A20, single use, EA=10% ethanol extract): 32 µg/mL (≈ 107 µM)
MIC (MDRAB; Acinetobacter baumannii, strain A20, single use, EA=water extract): 32 µg/mL (≈ 107 µM)
MIC50 (MDRAB; Acinetobacter baumannii, single use, 20 MDRABs, section of the 60% ethanol extract, read-out: MIC50): 32 µg/mL (≈ 107 µM)
MIC90 (MDRAB; Acinetobacter baumannii, single use, 20 MDRABs, section of the 60% ethanol extract, read-out: MIC90): 32 µg/mL (≈ 107 µM)
MIC50 (MDRAB; MDRABs, EA=60% ethanol extract): 32 µg/mL (≈ 107 µM)
MIC90 (MDRAB; MDRABs, EA=60% ethanol extract): 32 µg/mL (≈ 107 µM)
MIC Range (MDRAB; MDRABs, EA=60% ethanol extract): 1 to 32 µg/mL
MIC50 (MDRAB; MDRABs, EA=95% ethanol extract): 32 µg/mL (≈ 107 µM)
MIC90 (MDRAB; MDRABs, EA=95% ethanol extract): 32 µg/mL (≈ 107 µM)
MIC Range (MDRAB; MDRABs, EA=95% ethanol extract): 1 to 32 µg/mL
MIC50 (MDRAB; [1]): 32 µg/mL (≈ 107 µM)
MIC90 (MDRAB; [1]): 32 µg/mL (≈ 107 µM)
MIC Range (MDRAB; [1]): 1 to 32 µg/mL
MIC50 (MDRAB; [2]): 32 µg/mL (≈ 107 µM)
MIC90 (MDRAB; [2]): 32 µg/mL (≈ 107 µM)
MIC Range (MDRAB; [2]): 1 to 32 µg/mL
MIC50 (MDRAB; [3]): 32 µg/mL (≈ 107 µM)
MIC90 (MDRAB; [3]): 32 µg/mL (≈ 107 µM)
MIC (ATCC27853; EA=10% ethanol extract, read-out: MIC): 1 µg/mL (≈ 3.34 µM)
MIC (ATCC27853; EA=60% ethanol extract, read-out: MIC): 1 µg/mL (≈ 3.34 µM)
MIC (ATCC27853; EA=95% ethanol extract, read-out: MIC): 1 µg/mL (≈ 3.34 µM)
MIC (ATCC27853; EA=P. clypearia 10% ethanol extract, read-out: MIC (single use)): 4 µg/mL (≈ 13.4 µM)
MIC (ATCC27853; EA=P. clypearia water extract, read-out: MIC (single use)): 4 µg/mL (≈ 13.4 µM)
MIC (ATCC27853; EA=water extract, read-out: MIC): 1 µg/mL (≈ 3.34 µM)
MIC (ATCC27853; single use, EA = 60% ethanol extract, read-out: MIC): 4 µg/mL (≈ 13.4 µM)
MIC (ATCC27853; single use, EA = 95% ethanol extract, read-out: MIC): 4 µg/mL (≈ 13.4 µM)
